Assay results: US10914725B2, “Culture medium additive, culture medium composition, and method for culturing cells or tissue using same” (NISSAN CHEMICAL INDUSTRIES, LTD., priority 2015, dated 2021)

Assays:
[1] = tested on: adenocarcinomic human alveolar basal epithelial cell line A549; assay: High content analysis of anticancer agents by cell image analysis (Experimental Example 8); format: cell-based; settings: for average cell number per sphere / average dead cell number in sphere / average sphere number per 20 mm^2 / projected area: 0.03 (w/v)% low-molecular agar medium, 7 days with agent;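 for projected area: Projected area in square micrometres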
Experimental: Adenocarcinomic human alveolar basal epithelial cell line A549 (manufactured by DS PHARMA BIOMEDICAL CO., LTD.) was suspended in the above-mentioned medium composition containing low-molecular agar at 11,000 cells/mL. […] The plate was stood in a CO2 incubator (37° C., 5% CO2) overnight. The next day, paclitaxel (manufactured by Wako Pure Chemical Industries, Ltd.) and trametinib (manufactured by SANTA CRUZ) were further added by 10 μl per 1 well at a final concentration of 0.001 μM, 0.01 μM and 0.1 μM, respectively, mitomycin C (manufactured by Wako Pure Chemical Industries, Ltd.) at a final concentration of 0.005 μM, 0.05 μM and 0.5 μM, and MK2206 (manufactured by SANTA CRUZ) at a final concentration of 0.001 μM, 0.01 μM, 0.1 μM and 1 μM. Successively, the plate was further cultured in a standing state in a CO2 incubator (37° C., 5% CO2) for 7 days.
Successively, a solution of 20 μg/mL Propidium Iodide (manufactured by BIOMOL) in DMEM (phenol red, L-glutamine free) (manufactured by Wako Pure Chemical Industries, Ltd.) was prepared and added at 10 μL per 1 well, and the culture medium was suspended. The plate was centrifuged at 1,500 rpm for 1 min, and high content analysis was performed by cell image analysis using a cell imaging apparatus (“ArrayScan VTI HCS Reader”, manufactured by Thermo Fisher Scientific). At that time, observation was performed with 20 fields of view per well using a ×10 objective lens, cell outline and cell nucleus were detected from Hoechst33342 fluorescence image, and dead cells were detected from propidium iodide fluorescence image. In addition, 50% inhibitory concentration (nM) of each anticancer agent by high content analysis was calculated from the number of spheres constituted of not less than 5 cells. In this case, the value without addition of the anticancer agent was taken as 0% sphere formation inhibitory rate.

[2] = tested on: adenocarcinomic human alveolar basal epithelial cell line A549; assay: CellTiter-Glo cell survival assay of anticancer agents (Experimental Example 8); format: cell-based; settings: for IC50: Homo sapiens, A549, cell survival assay by luminescence, read-out: 50% inhibitory concentration
Experimental: Adenocarcinomic human alveolar basal epithelial cell line A549 (manufactured by DS PHARMA BIOMEDICAL CO., LTD.) was suspended in the above-mentioned medium composition containing low-molecular agar at 11,000 cells/mL. The above-mentioned cell suspension was dispensed to the wells of a 96 well flat bottom ultra-low attachment surface microplate (manufactured by Corning Incorporated, #3474) at 90 μL per 1 well. The plate was stood in a CO2 incubator (37° C., 5% CO2) overnight. […] Successively, the plate was further cultured in a standing state in a CO2 incubator (37° C., 5% CO2) for 7 days. As a negative control, a medium composition containing 10 (v/v) % FBS alone in DMEM (manufactured by Wako Pure Chemical Industries, Ltd.) was prepared. […] A549 cells were also suspended in each of the negative control and comparison control medium compositions, the negative control was dispensed to a 96 well flat bottom attachment surface microplate (manufactured by Corning Incorporated, #3585) and the comparison control was dispensed to a 96 well flat bottom ultra-low attachment surface microplate (manufactured by Corning Incorporated, #3474). […] CellTiter-Glo Luminescent Cell Viability Assay (manufactured by Promega) (100 μL) was added to the low-molecular agar-containing culture medium and each cell culture medium of the negative control and comparison control, the mixture was stood for 10 min at room temperature, and the amount of luminescence was measured by a microplate reader (“FlexStation 3”, manufactured by Molecular Devices) and according to the protocol recommended by Promega. The amount of luminescence of the medium alone was subtracted, whereby the number of viable cells was measured.

CC(=O)O[C@H]1C(=O)[C@@]2(C)[C@H]([C@H](OC(=O)c3ccccc3)[C@]3(O)C[C@H](OC(=O)[C@H](O)[C@@H](NC(=O)c4ccccc4)c4ccccc4)C(C)=C1C3(C)C)[C@]1(OC(C)=O)CO[C@@H]1C[C@@H]2O [paclitaxel, Paclitaxel]
IC50 ([1]; Homo sapiens, A549, high content analysis by cell image analysis, number of spheres of not less than 5 cells, low-molecular agar-containing medium, read-out: 50% inhibitory concentration): 4.1 nM
average cell number per sphere ([1]; agent 0.001 μM): 4.817
average dead cell number in sphere ([1]; agent 0.001 μM): 0.064
average sphere number per 20 mm^2 ([1]; agent 0.001 μM): 297.7
projected area ([1]; agent 0.001 μM): 1271 μm^2
average cell number per sphere ([1]; agent 0.01 μM): 2.3
average dead cell number in sphere ([1]; agent 0.01 μM): 0.336
average sphere number per 20 mm^2 ([1]; agent 0.01 μM): 187
projected area ([1]; agent 0.01 μM): 797 μm^2
average cell number per sphere ([1]; agent 0.1 μM): 1.662
average dead cell number in sphere ([1]; agent 0.1 μM): 0.591
average sphere number per 20 mm^2 ([1]; agent 0.1 μM): 133
projected area ([1]; agent 0.1 μM): 647 μm^2
IC50 ([2]; comparison control (0.015 (w/v)% deacylated gellan gum medium)): 4.5 nM
IC50 ([2]; low-molecular agar-containing medium): 4.9 nM
IC50 ([2]; negative control (DMEM, 10% FBS, attachment surface plate)): 4.1 nM
relative cell number (no anticancer agent = 100) ([2]; agent 0.001 μM, comparison control (0.015 (w/v)% deacylated gellan gum medium)): 99.9
relative cell number (no anticancer agent = 100) ([2]; agent 0.001 μM, low-molecular agar-containing medium): 102.4
relative cell number (no anticancer agent = 100) ([2]; agent 0.001 μM, negative control (DMEM, 10% FBS, attachment surface plate)): 100.1
relative cell number (no anticancer agent = 100) ([2]; agent 0.01 μM, comparison control (0.015 (w/v)% deacylated gellan gum medium)): 23.5
relative cell number (no anticancer agent = 100) ([2]; agent 0.01 μM, low-molecular agar-containing medium): 27
relative cell number (no anticancer agent = 100) ([2]; agent 0.01 μM, negative control (DMEM, 10% FBS, attachment surface plate)): 18.8
relative cell number (no anticancer agent = 100) ([2]; agent 0.1 μM, comparison control (0.015 (w/v)% deacylated gellan gum medium)): 10.8
relative cell number (no anticancer agent = 100) ([2]; agent 0.1 μM, low-molecular agar-containing medium): 12.1
relative cell number (no anticancer agent = 100) ([2]; agent 0.1 μM, negative control (DMEM, 10% FBS, attachment surface plate)): 5.5
